The values that follow come from patent publication US5508417A, “Broad-spectrum isothiazole antimicrobial agents” (Rohm and Haas Company, priority 1994, dated 1996).

Values after ≈ are worked out from the molar mass of the structure shown. Like-named read-outs stand apart in the source and are kept apart here. Where only a bound is given, the exact number is not on record here.

In one assay the test system is Pseudomonas aeruginosa. Kind of assay: Minimum inhibitory concentration by two-fold serial dilution in Trypticase Soy Broth, Pseudomonas aeruginosa. Format: cell-based. As to the method:
(§1) A stock solution of the test compound was made in dimethyl sulfoxide at 13,000 ppm and then diluted 26-fold to give a starting concentration of 500 ppm. The antimicrobial activity was evaluated by a two-fold serial dilution of the starting concentration of 500 ppm, using Trypticase Soy Broth medium at pH 7.0. The minimum inhibitory concentration (MIC) of compounds 1-15 against the test organisms are shown in Table 2. |Pseudomonas aeruginosa | Psae The antimicrobial activity of these compounds was determined as described in Example 6 with only one change. The organism Saur was replaced by Rhodotorula rubra (Rrub). Rrub is a pink yeast.

A further assay relates to Escherichia coli. Kind of assay: Minimum inhibitory concentration by two-fold serial dilution in Trypticase Soy Broth, Escherichia coli. Format: cell-based. As to the method:
as §1, with “|Escherichia coli Ecol” for “|Pseudomonas aeruginosa | Psae”

The next assay has as its system Aspergillus niger. Nature of the assay: Minimum inhibitory concentration by two-fold serial dilution in Trypticase Soy Broth, Aspergillus niger. Format: cell-based. The protocol: as §1, with “|Aspergillus niger Anig” for “|Pseudomonas aeruginosa | Psae”
Another assay concerns Staphlococcus aureus. Kind of assay: Minimum inhibitory concentration by two-fold serial dilution in Trypticase Soy Broth, Staphlococcus aureus. Format: cell-based. Conditions: Table 2, pH 7.0, read-out: Antimicrobial Activity (MIC), Saur. The protocol:
A stock solution of the test compound was made in dimethyl sulfoxide at 13,000 ppm and then diluted 26-fold to give a starting concentration of 500 ppm. The antimicrobial activity was evaluated by a two-fold serial dilution of the starting concentration of 500 ppm, using Trypticase Soy Broth medium at pH 7.0. The minimum inhibitory concentration (MIC) of compounds 1-15 against the test organisms are shown in Table 2. |Staphlococcus aureus | Saur

A further assay relates to Rhodotorula rubra. Nature of the assay: Minimum inhibitory concentration by two-fold serial dilution in Trypticase Soy Broth, Rhodotorula rubra. It is filed as cell-based. The following applies: Table 3, comparative, as described in Example 6, read-out: Comparative Antimicrobial Activity (MIC), Rrub. The protocol:
A stock solution of the test compound was made in dimethyl sulfoxide at 13,000 ppm and then diluted 26-fold to give a starting concentration of 500 ppm. The antimicrobial activity was evaluated by a two-fold serial dilution of the starting concentration of 500 ppm, using Trypticase Soy Broth medium at pH 7.0. The antimicrobial activity of these compounds was determined as described in Example 6 with only one change. The organism Saur was replaced by Rhodotorula rubra (Rrub). Rrub is a pink yeast.

The conditions of assay [1]: in words; U.S. Pat. No. 3,957,808; cited from earlier work.
Where [2] appears, read: Table 2, Trypticase Soy Broth, pH 7.0, read-out: Antimicrobial Activity (MIC), Psae.
Setting [3] is: Table 2, Trypticase Soy Broth, pH 7.0, read-out: Antimicrobial Activity (MIC), Ecol.
[4] abbreviates: Table 2, Trypticase Soy Broth, pH 7.0, read-out: Antimicrobial Activity (MIC), Anig.
Where [5] appears, read: Table 3, comparative, as described in Example 6, read-out: Comparative Antimicrobial Activity (MIC), Psae.
Where [6] appears, read: Table 3, comparative, as described in Example 6, read-out: Comparative Antimicrobial Activity (MIC), Ecol.
Where [7] appears, read: Table 3, comparative, as described in Example 6, read-out: Comparative Antimicrobial Activity (MIC), Anig.

In the case of `O=c1c(COc2cc(Cl)sn2)coc2ccccc12` [Compound 13, 3-(5-Chloroisothiazoloxy-3-yl-methyl)chromone], the MIC (as a rule, the lowest concentration that inhibits growth of the organism) is 32 µg/mL (≈ 109 µM) with Pseudomonas aeruginosa (setting [2]), 8 µg/mL (≈ 27.2 µM) in the assay with Escherichia coli (setting [3]), 16 µg/mL (≈ 54.5 µM) in the assay with Aspergillus niger (setting [4]) and 8 µg/mL (≈ 27.2 µM) in the assay on Staphlococcus aureus.

Take `O=C1C=CC(=O)C(COc2ccsn2)=C1` [Compound 15, 2-(Isothiazoloxy-3-yl-methyl)-1,4-benzoquinone]: the MIC came to 32 µg/mL (≈ 145 µM) in the assay with Pseudomonas aeruginosa (setting [2]), 64 µg/mL (≈ 289 µM) with Escherichia coli (setting [3]), 16 µg/mL (≈ 72.3 µM) in the assay on Aspergillus niger (setting [4]) and 32 µg/mL (≈ 145 µM) in the assay on Staphlococcus aureus.

For the compound `N#CC(=Cc1ccccc1)COc1cc(Cl)sn1` [Compound 4, 2-(5-Chloroisothiazoloxy-3-yl-methyl)-3-phenylacrylonitrile], the MIC is over 500 µg/mL in the assay with Pseudomonas aeruginosa (setting [2]), over 500 µg/mL in the assay on Escherichia coli (setting [3]), 500 µg/mL (≈ 1810 µM) with Aspergillus niger (setting [4]) and 500 µg/mL (≈ 1810 µM) with Staphlococcus aureus.

For the compound `CC=C(COc1cc(Cl)sn1)S(=O)(=O)c1ccccc1` [Compound 8, 1-(5-Chloroisothiazoloxy-3-yl-methyl)-2-phenylsulfonyl-2-butene], the MIC turned out to be 64 µg/mL (≈ 194 µM) with Pseudomonas aeruginosa (setting [2]), 32 µg/mL (≈ 97 µM) with Escherichia coli (setting [3]), 64 µg/mL (≈ 194 µM) in the assay on Aspergillus niger (setting [4]) and 32 µg/mL (≈ 97 µM) in the assay with Staphlococcus aureus.

`C=C(COc1cc(Cl)sn1)[S+]([O-])c1ccccc1` (stereo not shown) [Compound 6, 3-(5-Chloroisothiazoloxy-3-yl-methyl)-2-phenylsulfinyl-1-propene]: the MIC is 125 µg/mL (≈ 417 µM) in the assay on Pseudomonas aeruginosa (setting [2]), 125 µg/mL (≈ 417 µM) in the assay with Escherichia coli (setting [3]), 32 µg/mL (≈ 107 µM) in the assay with Aspergillus niger (setting [4]) and 125 µg/mL (≈ 417 µM) in the assay on Staphlococcus aureus.

For `O=C1C=CC(=O)C(COc2cc(Cl)sn2)=C1` [Compound 14, 2-(5-Chloroisothiazoloxy-3-yl-methyl)-1,4-benzoquinone], the MIC turned out to be 64 µg/mL (≈ 250 µM) with Pseudomonas aeruginosa (setting [2]), 16 µg/mL (≈ 62.6 µM) with Escherichia coli (setting [3]), 8 µg/mL (≈ 31.3 µM) with Aspergillus niger (setting [4]) and 64 µg/mL (≈ 250 µM) in the assay on Staphlococcus aureus.

Regarding `C=CCOc1cc(Cl)sn1` [B, reference compound], the minimal inhibitory concentration (MIC) turned out to be 500 µg/mL (≈ 2850 µM) in the assay with Pseudomonas aeruginosa (setting [5]), 500 µg/mL (≈ 2850 µM) with Rhodotorula rubra, 250 µg/mL (≈ 1420 µM) in the assay with Escherichia coli (setting [6]) and 250 µg/mL (≈ 1420 µM) with Aspergillus niger (setting [7]).

With `C=CCOc1ccsn1` [Compound A, reference compound], the MIC is over 500 µg/mL in the assay on Pseudomonas aeruginosa (setting [5]), over 500 µg/mL with Rhodotorula rubra, over 500 µg/mL in the assay on Escherichia coli (setting [6]) and 500 µg/mL (≈ 3540 µM) in the assay with Aspergillus niger (setting [7]). Further, the microbicidal properties entry in assay [1] is listed as “useful microbicidal properties”.

For `C=C(C(C)Oc1cc(Cl)sn1)S(=O)(=O)c1ccccc1` (stereo not shown) [Compound 7, 3-(5-Chloroisothiazoloxy-3-yl)-2-phenylsulfonyl-1-butene], the MIC with Pseudomonas aeruginosa (setting [2]), with Escherichia coli (setting [3]), in the assay with Aspergillus niger (setting [4]) and in the assay with Staphlococcus aureus was 32 µg/mL (≈ 97 µM) each time.

As for `CC(=O)C(=Cc1ccccc1)COc1cc(Cl)sn1` [Compound 5, α-(5-Chloroisothiazoloxy-3-yl-methyl)benzalacetone], the MIC in the assay on Pseudomonas aeruginosa (setting [2]) stood at 16 µg/mL (≈ 54.5 µM); in the assay on Escherichia coli (setting [3]), 4 µg/mL (≈ 13.6 µM); with Aspergillus niger (setting [4]) it was 1 µg/mL (≈ 3.4 µM); in the assay on Staphlococcus aureus, 2 µg/mL (≈ 6.81 µM).

For the compound `C=C(COc1cc(Cl)sn1)C(=O)NC(C)C` [Compound 12, N-Isopropyl 2-(5-chloroisothiazoloxy-3-yl-methyl)acrylamide], the MIC with Pseudomonas aeruginosa (setting [2]) was 500 µg/mL (≈ 1920 µM); in the assay on Escherichia coli (setting [3]) it was 500 µg/mL (≈ 1920 µM); in the assay on Aspergillus niger (setting [4]), 64 µg/mL (≈ 245 µM); with Staphlococcus aureus, over 500 µg/mL.

For `CC(=O)C(=Cc1ccccc1)COc1nsc2c1CCC2` [Compound 11, α-(4,5-Trimethyleneisothiazoloxy-3-yl-methyl)benzalacetone], the MIC with Pseudomonas aeruginosa (setting [2]) is over 500 µg/mL; in the assay with Escherichia coli (setting [3]), over 500 µg/mL; in the assay with Aspergillus niger (setting [4]), 500 µg/mL (≈ 1670 µM); in the assay with Staphlococcus aureus it was over 500 µg/mL.

Regarding `C=C(COc1ccsn1)C(=O)OC` [Compound 1, Methyl 2-(isothiazoloxy-3-yl-methyl)acrylate], the MIC in the assay with Pseudomonas aeruginosa (setting [2]), in the assay with Pseudomonas aeruginosa (setting [5]), in the assay with Rhodotorula rubra, with Escherichia coli (setting [3]), in the assay with Escherichia coli (setting [6]) and with Aspergillus niger (setting [4]) was 32 µg/mL (≈ 161 µM) each time. The MIC in the assay on Aspergillus niger (setting [7]) worked out at 32 µg/mL (≈ 161 µM).

With `C=C(COc1cc(Cl)sn1)C(=O)NCc1ccccc1` [Compound 9, N-Benzyl 2-(5-chloroisothiazoloxy-3-yl-methyl)acrylamide], the MIC in the assay with Pseudomonas aeruginosa (setting [2]) is over 500 µg/mL; with Escherichia coli (setting [3]) it was over 500 µg/mL; in the assay with Aspergillus niger (setting [4]), 32 µg/mL (≈ 104 µM); in the assay on Staphlococcus aureus, over 500 µg/mL.

In the case of `CC=C(COc1cc(Cl)sn1)C(=O)OCC` [Compound 3, Ethyl 3-methyl-2-(5-chloroisothiazoloxy-3-yl-methyl)acrylate], the MIC in the assay on Pseudomonas aeruginosa (setting [2]) amounted to 125 µg/mL (≈ 478 µM); in the assay with Escherichia coli (setting [3]), 8 µg/mL (≈ 30.6 µM); with Aspergillus niger (setting [4]) it was 4 µg/mL (≈ 15.3 µM); in the assay with Staphlococcus aureus it was 8 µg/mL (≈ 30.6 µM).

Turning to `C=C(COc1cc(Cl)sn1)C(=O)O` [Compound 10, 2-(5-Chloroisothiazoloxy-3-yl-methyl)acrylic acid], the MIC is over 500 µg/mL in the assay with Pseudomonas aeruginosa (setting [2]), 125 µg/mL (≈ 569 µM) in the assay with Escherichia coli (setting [3]), over 500 µg/mL in the assay on Aspergillus niger (setting [4]) and 64 µg/mL (≈ 291 µM) in the assay with Staphlococcus aureus.

Consider `C=C(COc1cc(Cl)sn1)C(=O)OC` [Compound 2, Methyl 2-(5-chloroisothiazoloxy-3-yl-methyl)acrylate], for which the MIC in the assay with Pseudomonas aeruginosa (setting [2]) was 32 µg/mL (≈ 137 µM); in the assay on Pseudomonas aeruginosa (setting [5]), 32 µg/mL (≈ 137 µM); with Rhodotorula rubra, 8 µg/mL (≈ 34.2 µM); in the assay on Escherichia coli (setting [3]), 2 µg/mL (≈ 8.56 µM); in the assay on Escherichia coli (setting [6]) it was under 4 µg/mL; in the assay on Aspergillus niger (setting [4]) it was 1 µg/mL (≈ 4.28 µM). Moreover, the MIC with Aspergillus niger (setting [7]) and in the assay with Staphlococcus aureus was 4 µg/mL (≈ 17.1 µM) throughout.
